Laboratory results: patent US20240074473A1, “METHOD FOR INDUCING HYPERTROPHIC MUSCLE FIBERS FOR INDUSTRIAL MEAT PRODUCTION” (Yeda Research and Development Co. Ltd., priority 2021, published 2024)
Like-named read-outs stand apart in the source and are kept apart here.

Assays:
primary mouse myoblasts [1] = experiment: Fusion index of primary mouse myoblasts (MyHC immunostaining); format: cell-based; settings: co-treatment with ERKi and 5 uM KN93; bi- and tri-nucleated MyHC+ cells maintained
Protocol: (§1) Isolation of and treatment of primary myoblasts. Primary mouse myoblasts were isolated from gastrocnemius muscle using trypsin-tissue dissociation. Briefly, muscle tissues were incubated in Trypsin B (0.25%, Biological Industries) and subjected to mechanical dissociation with a serological pipet. Supernatants were strained and centrifuged. Pellets were grown resuspended in BioAmf-2 media (Biological Industries, Israel) and plated on 10% Matrigel (BD Biosciences)-coated plates at 37° and 5% CO2. For all in vitro experiments, proliferation medium was Bio-Amf2 (Biological Industries, Israel) and Differentiation medium (DM) was DMEM 2% Horse Serum (HS) with 1% Pen/Strep. For fusion assays, cells were trypsinized with Trypsin C (0.05%, Biological Industries) and subjected to two rounds of preplating on uncoated plates to reduce the number of fibroblasts. Cells were plated at a density of 8×10^3 per well in 10% Matrigel-coated 96-well plates in proliferation medium for 24 hours. The following day, proliferation media was replaced either with proliferation media or with DM containing DMSO (Ctrl) or 1 μM ERK1/2 inhibitor (ERKi; SCH772984, Cayman Chemicals), […] RXR antagonist (RXRi; HX-531, Cayman Chemicals), […] Ryanodine receptor antagonist (RYRi; Dantrolene, Cayman Chemicals), 5 μM CaMKII inhibitor (CaMKIIi; KN93, Cayman Chemicals), or with DM for controls.
(§2) Immunofluorescence staining. First passage primary myoblasts isolated from various strains (indicated in figure legends) were plated in 96-well plates or chamber slides and treated as previously described. The cells were fixed with ice cold 4% PFA in PBS for 10 minutes, permeabilized with 0.5% Triton X-100 in PBS for 6 minutes, and blocked in PBS with 0.025% tween, 10% normal horse serum and 10% normal goat serum for 1 hour at room temperature. Primary antibody incubation was done in blocking buffer overnight at 4 degrees, with the following antibodies: Myosin Heavy Chain (MyHC, MF20, DSHB hybridoma supernatant 1:10, or MY-32 ABCAM ab51263 1:400), Myogenin (MYOG sc-13137 SCBT 1:200), pHistone 3 (PH3, ab47297 ABCAM 1:1000), Ki-67 (Cell Marque #275R), RYR (ab2868 ABCAM 1:100), and pCaMKII (SIGMA SAB4504356 1:100). Cells were washed 3 times in PBS with 0.025% tween and then incubated with appropriate secondary antibodies in PBS 1 hour. Where indicated, nuclei were either labeled with DAPI (SIGMA D9542, 5 ug/ml) or Hoechst 33342 (Thermo scientific #62249, 1:2000). Fixed cells at 24 hours post treatment with indicated inhibitors were imaged using the Nikon Eclipse Ti2 microscope (further described in microscopy section). All analysis was performed on at least 1000 nuclei. […]
Quantification of fusion index. Following immunostaining and imaging, a fusion index was quantified by manually identifying nuclei found in a MyHC positive cell with at least 2 nuclei. Then the values were expressed as a percentage of the total nuclei per field. Briefly, in Figures where fusion index is stratified into subgroups of fiber size, the nuclei number in MyHC positive cell was manually quantified in a given field and stratified into groups of mononucleated, bi-nucleated myotubes, myotubes with 3-10 nuclei and myotubes with greater than 10 nuclei. […] Fields were analyzed hourly, and nuclei per cell was quantified and stratified into mononucleated, bi-nucleated, tri-nucleated and cells with ≥4 nuclei.

primary mouse myoblasts [2] = experiment: MYOG positive nuclei in primary mouse myoblasts (immunofluorescence); format: cell-based; settings: co-treatment with 1 μM ERKi, 24 hrs; HX531 20 uM, Dantrolene 50 uM, BAPTA-AM 10 uM, KN93 5 uM
Protocol: as §1
Immunofluorescence staining. First passage primary myoblasts isolated from various strains (indicated in figure legends) were plated in 96-well plates or chamber slides and treated as previously described. The cells were fixed with ice cold 4% PFA in PBS for 10 minutes, permeabilized with 0.5% Triton X-100 in PBS for 6 minutes, and blocked in PBS with 0.025% tween, 10% normal horse serum and 10% normal goat serum for 1 hour at room temperature. Primary antibody incubation was done in blocking buffer overnight at 4 degrees, with the following antibodies: Myosin Heavy Chain (MyHC, MF20, DSHB hybridoma supernatant 1:10, or MY-32 ABCAM ab51263 1:400), Myogenin (MYOG sc-13137 SCBT 1:200), pHistone 3 (PH3, ab47297 ABCAM 1:1000), Ki-67 (Cell Marque #275R), RYR (ab2868 ABCAM 1:100), and pCaMKII (SIGMA SAB4504356 1:100). Cells were washed 3 times in PBS with 0.025% tween and then incubated with appropriate secondary antibodies in PBS 1 hour. Where indicated, nuclei were either labeled with DAPI (SIGMA D9542, 5 ug/ml) or Hoechst 33342 (Thermo scientific #62249, 1:2000). Fixed cells at 24 hours post treatment with indicated inhibitors were imaged using the Nikon Eclipse Ti2 microscope (further described in microscopy section). All analysis was performed on at least 1000 nuclei. For fixed cells following the timecourse with ERKi or DM (FIG. 1B), images were captured with an inverted Olympus IX83 microscope (further details in microscopy section). All imaging analysis were performed on at least 1000 cells.

primary mouse myoblasts [3] = experiment: qRT-PCR gene expression in primary mouse myoblasts; format: cell-based; settings: co-treatment with ERKi and CaMKIIi
Protocol: Quantitative real-time PCR (qRT-PCR). Total RNA was isolated using Tri-Reagent (SIGMA) according to the manufacturer's instructions. cDNA was synthesized with the High Capacity cDNA Reverse Transcription Kit (Applied Biosystems according to the manufacturer's instructions. qRT-PCR was performed with SYBR green PCR Master Mix (Applied Biosystems) using the StepOnePlus Real-time PCR system (Applied Biosystems). Values for specific genes were normalize to either Gapdh or Hprt housekeeping control as indicated in Figure legend. Expression was calculated using the ddCT method.
First passage primary mouse derived myoblast were seeded in proliferation media, in equal number in 12-well tissue culture plates that were precoated with 10% Matrigel solution. Following 24 hours to allow for complete attachment, culture media was washed and replaced either with fresh proliferation media (PM), PM supplemented with 1 uM SCH 772984 (ERKi) or differentiation media (DM). After 24 hrs, cells were lysed and RNA was collected. Gene expression analysis was carried out using SYBR green qRT-PCR analysis.

primary mouse myoblasts [4] = experiment: Proliferation markers KI-67 and pH3 staining in primary mouse myoblasts; format: cell-based; settings: co-treatment of ERKi with CaMKIIi
Protocol: as §2

CaMKII = experiment: Western blot of CaMKII activation (p-CaMKII T287) in myoblasts; format: cell-based, mouse; settings: co-treatment with ERKi and 5 uM KN93, 24 hrs
Protocol: Western Blot analysis. Cultured cells and whole tissues extracts were prepared with RIPA buffer supplemented with protease inhibitor cocktail (SIGMA P8340), and phosphatase inhibitor cocktails (SIGMA P5726 and P0044). Western blotting was performed using the Mini-PROTEAN Tetra Cell electrophoresis system, and transferred to PVDF membranes. The following primary antibodies concentrations were used p-CAMKII 1:1000 (Abcam ab182647), CaMKII 1:1000 (Cell Signaling 3362), GAPDH 1:10,000 (Abcam ab181602), p-ERK1/2 1:20,000 (SIGMA M9692), ERK1/2 1:40,000 (SIGMA), Myosin Heavy Chain (MF-20 DSHB hybridoma supernatant 1:100) Horseradish peroxidase conjugated secondary anti-mouse, anti-rabbit or anti-goat was used to detect proteins (Jackson Immunology). Western blots were imaged using the Chemidoc Multiplex system (Bio-rad).

primary mouse myoblasts [5] = experiment: Cell motility of myoblasts; format: cell-based; settings: co-treatment with ERKi and CaMKIIi
[6] = Risk categorization of cell culture media ingredients
Source text: Category 1: These cell culture media components are food ingredients/additives that are GRAS or permitted by federal regulation without limitation on use. Exemplary compounds in this category include innocuous ingredients such as sugars, pH buffers, water soluble vitamins, and common antioxidants such as tocopherols.
(§3) Category 2: These cell culture media components are common dietary nutrients and are anticipated to have GRAS status for food use or be permitted by regulation for addition to food. Examples of such compounds include most of the inorganic salts and macronutrients that are present within the cell culture media. […] Majority of nutrients present within the poultry cell-based meat may be readily measured using common validated methods for food composition testing. Batch analyses of multiple lots of the finished product may be obtained to validate the above assumptions. In some instances, consideration of established safe levels (e.g., ADI, UL) derived from a relevant authoritative body (e.g., U.S. FDA, EFSA, JECFA, FSANZ, U.S. EPA) may be leveraged to support safety. If comparisons of anticipated dietary intakes relative to an authoritative reference intake value is used, consideration of additive intakes from all dietary sources may be considered. In the absence of an authoritative reference intake value, published NOAELs from animal toxicology studies may be used to evaluate safety using standard scientific procedures for food safety evaluation. A margin of exposure (MoE) of 100-fold or greater between the NOAEL and estimated dietary intakes from food exposures is typically considered adequate to support safety. in situations where the MoE is <100-fold, additional measures for further reduction of the media component may be necessary, or further characterization of intraspecies/interspecies differences in metabolism may be necessary. These situations also require careful consideration of the regulatory status on a case-by basis (e.g., premarket approval as a food additive or GRAS evaluation required).
For example, situations where the compound is not detectable in finished product or is present at equivalent levels in comparator foods, compounds that are thermo-labile and will be digested during cooking, and/or compounds that are expected to be digested to innocuous compounds following ingestion. Examples of compounds meeting the aforementioned conditions would include recombinant growth factors and serum components. For Category 3 substances a final consideration in the safety assessment process may involve hazard characterization of the potential for a substance to produce toxic biological effects outside of the endpoints measured in a sub-chronic rat toxicity study. Substances with biological activity may require additional hazard characterization related to reproductive and developmental toxicity, or immunotoxicity. Considerations for allergenicity, biological effects in humans (e.g., effects on blood pressure), and synergistic effects with other media components also may be evaluated. […] Examples of category 3 components include recombinant proteins and animal serum.

[7] = Margin of estimated intake below NOAEL of rat toxicity study; format: in vivo
Source text: as §3

[8] = Maximum estimated dietary exposure to media ingredients per 100 g serving; settings: assumption of complete transfer of media components to the finished product on a wt/wt basis
[9] = cell culture media ingredient used during meat production

Compound: COc1ccc(S(=O)(=O)N(CCO)c2ccccc2CN(C)C/C=C/c2ccc(Cl)cc2)cc1 [KN93]
- Formation of polynucleated myotubes (primary mouse myoblasts [1]): suppressed
- Differentiation (percent of MYOG positive nuclei) on co-treatment with ERKi (primary mouse myoblasts [2]): remained unaffected
- ERKi-induced elevation of Mymk expression (primary mouse myoblasts [3]): partially suppressed
- Cell cycle arrest (pH3 staining, p21 and p27 expression) compared to ERKi alone (primary mouse myoblasts [4]): did not affect cell cycle arrest
- CaMKII activation (p-CaMKII T287) (CaMKII): suppressed CaMKII activation
- Cell motility compared to ERKi-treated cells (primary mouse myoblasts [5]): unchanged

Compound: NCCO [MONOETHANOLAMINE]
- Risk Assessment Category [6]: 2
- Intakes for a 65 kg adult below NOAEL ([7]; rat NOAEL): kg adult are 128 fold
- Maximum Estimated Exposure per 100 g serving [8]: 160 mg

Compound: O=[Se]([O-])[O-].[Na+].[Na+] [SODIUM SELENITE (ANHY)]
- Risk Assessment Category [6, 9]: 2
- Intakes for a 65 kg adult below NOAEL ([7]; 13 week rat NOAEL): are 133-fold below 13
- Maximum Estimated Exposure per 100 g serving [8]: 0.19 mg

Compound: O.O.O.O.O.O.O=C([O-])CCC(=O)[O-].[Na+].[Na+] [SODIUM SUCCINATE-2Na 6H20]
- Risk Assessment Category [6, 9]: 2
- Intakes for a 65 kg adult below NOAEL ([7]; NOAEL from 2 year rat study): are >1000 fold below
- Maximum Estimated Exposure per 100 g serving [8]: 40 mg

Compound: O=C(O)CCC(=O)O [SUCCINIC ACID]
- Intakes for a 65 kg adult below NOAEL ([7]; NOAEL from 2 year rat study): adult are 257-fold
- Maximum Estimated Exposure per 100 g serving [8]: 200 mg
